The source of these data is US8669293B2, “Method and compositions for preventing hormone induced adverse effects” (Lycored Ltd., priority 2000, dated 2014).

Entries after “also recorded” stand apart in the source; their conditions may differ.

In test [1] the test system is estrogen receptor-positive human breast cancer cell lines. The note with it: approximately 0.1 to 10 μM; not in estrogen receptor negative lines; cited from earlier work.
The test system of test [2] is ECC-1 endometrial cancer cells. The experiment in a line: ECC-1 cell proliferation assay ([3H]thymidine incorporation into DNA). Type of test: cell-based, human. The note with it: for inhibition of genistein-induced cell proliferation / inhibition of estradiol-induced cell proliferation: FIG. 4. The procedure:
The human endometrial cancer (estrogen dependent) cell line ECC-1 was developed by Dr. […] University, PA, U.S.A, and generously provided to us by Dr. R. Oregan, Norwestern University, Chicago, Ill., U.S.A. Human mammary cancer cell lines MCF-7 (estrogen dependent) and MDA-231 (hormone independent) were obtained from the American Type Culture Collection (Rockville, Md., U.S.A.). Cells were cultured in DMEM containing penicillin (100 U/ml), streptomycin (0.1 mg/ml)) nystatin (12.5 μg/ml), insulin (0.6 μg/ml), and 10% FCS. Cells were stripped of endogenous steroids according to the procedure of Vignon et al. (1987, Biochem. Biophys. Res. Comm., 146:1502-8) by sucessive passages in medium without phenol red containing 10% and then 3% of charcoal-stripped FCS. Cells were seeded into 96 multiwell plates (5,000 cells per well) in DMEM containing 3% of charcoal-stripped FCS. After one day the medium was changed to one containing the solubilized carotenoid or THF alone. The medium was changed daily to ensure a continuous supply of carotenoid. After incubation, the number of cells and the rate of cell proliferation were estimated by the incorporation of [^3H]thymidine incorporation into cellular DNA, as described in U.S. Pat. No. 5,827,900. Cell growth was also measured by direct cell counting with a Coulter counter after trypsinization and dilution in Isotone-II (Coulter Electronics, Luton, England). A good correlation was found between the two methods. ECC-1 cells were incubated with increasing concentrations of the isoflavones genistein and daidzein, the two primary isoflavones in soy products, and with soy extract. Cell proliferation after three days was measured by [^3H]thymidine incorporation into DNA (FIG. 1, panel A). […] ECC-1 cells were also incubated with a single high concentration (40 μM) of each of genistein, daidzein and soy extract and cell proliferation was assayed daily over the course of three days.
(Dividing cells build labelled thymidine or BrdU into new DNA.)

The test system of test [3] is MCF-7 mammary cancer cells (estrogen dependent). Briefly: MCF-7 cell proliferation assay ([3H]thymidine incorporation). The note with it: for inhibition of phytoestrogen-induced cell proliferation: genistein 4 μM. Type of test: cell-based, human. The procedure:
(§1) The human endometrial cancer (estrogen dependent) cell line ECC-1 was developed by Dr. P. G. Satyaswaroop, Pennslyvania State University, PA, U.S.A, and generously provided to us by Dr. R. Oregan, Norwestern University, Chicago, Ill., U.S.A. Human mammary cancer cell lines MCF-7 (estrogen dependent) and MDA-231 (hormone independent) were obtained from the American Type Culture Collection (Rockville, Md., U.S.A.).
(§2) Cells were cultured in DMEM containing penicillin (100 U/ml), streptomycin (0.1 mg/ml)) nystatin (12.5 μg/ml), insulin (0.6 μg/ml), and 10% FCS. Cells were stripped of endogenous steroids according to the procedure of Vignon et al. (1987, Biochem. Biophys. Res. Comm., 146:1502-8) by sucessive passages in medium without phenol red containing 10% and then 3% of charcoal-stripped FCS. Cells were seeded into 96 multiwell plates (5,000 cells per well) in DMEM containing 3% of charcoal-stripped FCS. After one day the medium was changed to one containing the solubilized carotenoid or THF alone. The medium was changed daily to ensure a continuous supply of carotenoid.
After incubation, the number of cells and the rate of cell proliferation were estimated by the incorporation of [^3H]thymidine incorporation into cellular DNA, as described in U.S. Pat. No. 5,827,900. Cell growth was also measured by direct cell counting with a Coulter counter after trypsinization and dilution in Isotone-II (Coulter Electronics, Luton, England).
The comparative effects of estradiol and genistein supplementation on the proliferation of the hormone-dependent cell lines MCF-7 mammary cancer and ECC-1 endometrial cancer were examined (FIG. 2).
MCF-7 mammary cancer cells were stimulated by genistein (4 μM) and test cultures were additionally supplemented with lycopene or phytoene or a combination of both, at either physiological concentrations (FIG. 6 panel A) or at about one order of magnitude greater than the physiological concentrations (FIG. 6 panel B).

In test [4] the test system is MDA-231 mammary cancer cells (hormone independent). Briefly: MDA-231 cell proliferation assay ([3H]thymidine incorporation). In kind it is cell-based, human. The note with it: IGF-1 30 nM. The procedure: as §1, §2
After incubation, the number of cells and the rate of cell proliferation were estimated by the incorporation of [^3H]thymidine incorporation into cellular DNA, as described in U.S. Pat. No. 5,827,900. Cell growth was also measured by direct cell counting with a Coulter counter after trypsinization and dilution in Isotone-II (Coulter Electronics, Luton, England). A good correlation was found between the two methods.

[5] abbreviates: carotenoids at high, non-physiological concentrations (about one order of magnitude above physiological), FIG. 6 panel B.
[6] abbreviates: carotenoids at physiological concentrations, FIG. 6 panel A.
[7] abbreviates: 40 μM, after one day of incubation, FIG. 1 panel B.
Where [8] appears, read: 0.4 and 4 μM, three days, FIG. 1 panel A.
Setting [9] is: higher, non-physiological concentrations (≧10 μM), three days, FIG. 1 panel A.
[10] abbreviates: lycopene 3 to 5 μM, three days, FIG. 2.

With `O=c1oc2cc(O)ccc2c2oc3cc(O)ccc3c12` [counestrol], the “effect on cell proliferation” value in test [1] is on record as “induce cell proliferation”.

Turning to `CC(C)=CCC/C(C)=C/CC/C(C)=C/CC/C(C)=C/C=C/C=C(\C)CC/C=C(\C)CC/C=C(\C)CCC=C(C)C` [phytoene], the “inhibition of genistein-induced cell proliferation” value in test [2] (genistein 1 μM) is “effective inhibitors”. Further, the figures for the “inhibition of phytoestrogen-induced cell proliferation” value in test [3] (setting [5]) and in test [3] (setting [6]) were “effective in significantly inhibiting” and “not effective”, respectively.

With `COc1ccc(-c2coc3cc(O)cc(O)c3c2=O)cc1` [biochanin A], in test [1], the “effect on cell proliferation” value is reported as “induce cell proliferation”.

Take `O=c1c(-c2ccc(O)cc2)coc2cc(O)ccc12` [daidzein, reference compound]: the “effect on cell proliferation” value in test [2] (setting [7]) was “significantly increases cell proliferation; also recorded: stimulated cell proliferation”; in test [2] (setting [8]), “significant increase in cell proliferation rate; also recorded: stimulated cell proliferation”; in test [2] (setting [9]) it was “only stimulatory”.

As for `O=c1c(-c2ccc(O)cc2)coc2cc(O)cc(O)c12` [genistein, reference compound], the “effect on cell proliferation” value is “significantly increases cell proliferation; also recorded: stimulated cell proliferation” in test [2] (setting [7]); “inhibitory effects” in test [2] (40 μM, second day in culture, FIG. 1 panel B); “significant increase in cell proliferation rate” in test [2] (setting [8]); “stimulated cell proliferation” in test [2] (0.4 and 4 μM, three days, FIG. 1 panel A, listed as Genistein); “inhibited cell proliferation” in test [2] (setting [9]); “induce cell proliferation” in test [1]. Also, the “effect of hormone alone on proliferation” value in test [2] (genistein increasing concentrations, estradiol 1 and 10 nM, FIG. 1/2) is listed as “biphasic effects on proliferation”; in test [3] (genistein increasing concentrations, estradiol 1 and 10 nM, FIG. 2), “biphasic effects on proliferation”. In test [3] (genistein about 0.4 to 4 μM plus IGF-1 30 nM, compared with genistein alone, FIG. 3 panel A), the “stimulatory effect of genistein in the presence of IGF-1” value is “significantly increases the cell proliferation rate; also recorded: further augmented”.

In the case of `CC(C)=CCC/C(C)=C/C=C/C(C)=C/C=C/C(C)=C/C=C/C=C(C)/C=C/C=C(C)/C=C/C=C(\C)CCC=C(C)C` [lycopene], in test [4] (lycopene 3 to 5 μM, FIG. 3), the “cell proliferation relative to controls” value is on record as “reduced to levels less than that of controls”. The “effect on IGF stimulation of proliferation” value in test [4] (lycopene 3 to 5 μM, FIG. 3) is “inhibits IGF stimulation”; in test [3] (lycopene 3 to 5 μM, IGF-1 30 nM, FIG. 3) it was “inhibits IGF stimulation”. For the same compound, the “inhibition of estradiol-induced cell proliferation” value in test [2] (estradiol 10 nM) is recorded as “effectively inhibited”. Further, the “inhibition of estradiol-induced cell proliferation, dose dependence” value in test [2] (estradiol 10 nM, various lycopene concentrations (lowest 0.9 μM), FIG. 5) was “all lycopene concentrations tested were effective in inhibiting”. Also, in test [2] (genistein 1 μM), the “inhibition of genistein-induced cell proliferation” value is “effective inhibitors; also recorded: effectively inhibited”. In test [2] (genistein 1 μM, various lycopene concentrations (lowest 0.9 μM), FIG. 5), the “inhibition of genistein-induced cell proliferation, dose dependence” value is given as “all lycopene concentrations tested were effective in inhibiting”. Also, the “effect on basal growth” value in test [2] (setting [10]) and in test [3] (setting [10]) was “significantly inhibited” throughout. The “effect on estrogen-induced (genistein or estradiol) growth” value in test [2] (setting [10]) and in test [3] (setting [10]) was “substantially inhibited; also recorded: significantly inhibited” each time. The entries for the “inhibition of phytoestrogen-induced cell proliferation” value in test [3] (setting [5]) and in test [3] (setting [6]) were “effective in significantly inhibiting” and “only marginally effective”, respectively. Moreover, in test [3] (lycopene 3 to 5 μM, genistein 0.4 to 4 μM, IGF-1 30 nM, FIG. 3 panel A), the “effect on cell proliferation stimulated by combined IGF-1 and genistein” value is reported as “inhibits the cell proliferation”.

In the case of `O=c1cc(-c2ccc(O)c(O)c2)oc2cc(O)cc(O)c12` [luiolin], in test [1], the “effect on cell proliferation” value was “induce cell proliferation”.

Turning to `CC1=C(/C=C/C(C)=C/C=C/C(C)=C/C=C/C=C(C)/C=C/C=C(C)/C=C/C2=C(C)C(=O)[C@@H](O)CC2(C)C)C(C)(C)C[C@H](O)C1=O` [astaxanthin], in test [2] (estradiol 10 nM), the “inhibition of estradiol-induced cell proliferation” value is reported as “effectively inhibited”. Also, the “inhibition of genistein-induced cell proliferation” value in test [2] (genistein 1 μM) was “effective inhibitors; also recorded: effectively inhibited”.

As for “IGF-1: Human recombinant IGF-1 purchased from GroPep”, the “effect on cell growth” value in test [4] (FIG. 3 panel B) is “significantly stimulates cell growth”; in test [3] (IGF-1 30 nM, FIG. 3 panel A), “significantly stimulates cell growth”.

For `O=c1c(O)c(-c2ccc(O)cc2)oc2cc(O)cc(O)c12` [kaempferl], the “effect on cell proliferation” value in test [1] was “induce cell proliferation”.

Regarding `CC1=C(/C=C/C(C)=C/C=C/C(C)=C/C=C/C=C(C)/C=C/C=C(C)/C=C/C2=C(C)CCCC2(C)C)C(C)(C)CCC1` [beta-carotene], the “inhibition of estradiol-induced cell proliferation” value in test [2] (estradiol 10 nM) is on record as “effectively inhibited”. The “inhibition of genistein-induced cell proliferation” value in test [2] (genistein 1 μM) is on record as “effective inhibitors; also recorded: effectively inhibited”.
